Assay results as given in patent US9410152B2, “Use of microrna molecules to influence skin pigmentation” (CHANEL PARFUMS BEAUTE, priority 2011, dated 2016).

Legend:
protein TYRP1 = experiment: Western blot of TYRP1 protein; type: cell-based, human; details: MNT-1 cells, 50 nM mimetic, day 12
Protocol: 4×10^5 MNT-1 cells were seeded per well in a 6-well plate (#353046, Falcon) on day-1. On day 0, the cells were transfected with 50 nM of mimetic of the miRNAs (hsa-mir-137 # C-300604-07-005, hsa-mir-7 # C-300547-05-0005, hsa-mir-330-5p # C-301082-01-0005, negative control # NC-002000-01-05, Dharmacon), using 5 μL of Lipofectamine 2000 (#1668-019, Invitrogen). On day 1, the medium was changed. On day 3, the cells were trypsinized and seeded at 4×10^5 cells per well. On day 4, the cells were transfected again with 50 nM of mimetic of the miRNAs (see day 0). On day 5, the medium was changed. On day 7, the cells were trypsinized and seeded at 4×10^5 cells per well. On day 8, the cells were transfected with 50 nM of mimetic of the miRNAs (see day 0). On day 9, the medium was changed. On day 10, the cells were trypsinized and divided into two (from one by six wells to two by six wells). On day 12, one six-well plate was used for lysis of the RNA and the other for lysis of the proteins. As positive control of depigmentation, MNT-1 cells were incubated with 3.5 mM of kojic acid (Sigma K3125-5G) for 12 days. The cells were distributed as described and the kojic acid was renewed with the medium every 4 days. The percentage inhibition of the kojic acid is of the order of 10%. […] The concentration of proteins was determined with the BCA Protein Assay (ThermoFisher). […]

[1] = system: mutated form of the binding site of miR-330-5p in the 3'UTR TYR region (MUT); experiment: Luciferase reporter assay, mutated (MUT) TYR 3'UTR binding site; type: cell-based; details: Lu1205 human melanoma cells, 50 nM mimetic co-transfected, relative to control without insert
From the text: (§1) The predicted binding site of miR-330-5p in the 3′UTR (position 68-75 of 3′UTR with total length of 393nt) of TYR (NM 000372) including the adjacent bases was designed using the following primers, and was cloned into the pmirGLO reporter vector (Promega) downstream of the region coding for firefly luciferase and using the Pmel and XbaI sites.
(§2) Ligation of the primers LL2086 (sense) and LL2087 (antisense) represents the wild-type (WT) TYR 3′UTR sequence, whereas ligation of the primers LL2088 (sense) and LL2089 (antisense) represents the mutated form of the binding site of the miR-330-Site 5p in the 3′UTR TYR region (MUT). All the constructs were confirmed by sequencing. On D0, 200,000 Lu1205 cells were seeded in 12-well plates. On D1, the Lu1205 cells were transfected with either 30 ng of pmirGLO empty vector (without insert), or 30 ng of WT construct, or 30 ng of MUT construct. At the same time, the cells were co-transfected with 50 nM of mimetic of miR-330-5p (Dharmacon) using Lipofectamine 2000 (Invitrogen). Forty-eight hours after transfection, the cells were collected and analyzed both with firefly luciferase and with Renilla luciferase (included in the pmirGLO vector) using the luciferase double assay (Promega) and a luminometer (Microlumatplus LB96V, Berthold Technologies). […] The relative luciferase activity was calculated, establishing the condition of non-insertion as 1.

[2] = system: binding site of miR-330-5p in the 3'UTR of tyrosinase (TYR), WT; experiment: Luciferase reporter assay, wild-type (WT) TYR 3'UTR binding site; type: cell-based; details: Lu1205 human melanoma cells, 50 nM mimetic co-transfected, relative to control without insert
From the text: as §1, §2

Row | Substance | level of protein TYRP1 (Western blot) (protein TYRP1) | luciferase activity, MUT construct [1] | luciferase activity, WT construct [2]
1 | hsa-miR-137: mimetic of miRNA hsa-mir-137 (Dharmacon C-300604-07-005); mature sequence SEQ ID NO: 3 (UUAUUGCUUAAGAAUACGCGUAG; commercial mimic, chemistry not given here; listed as Homo sapiens) | reduces the level of protein TYRP1 slightly | – | –
2 | hsa-miR-330-5p: mimetic of miRNA hsa-mir-330-5p (Dharmacon C-301082-01-0005); mature sequence 5'-UCUCUGGGCCUGUGUCUUAGGC-3' (SEQ ID NO: 1) (UCUCUGGGCCUGUGUCUUAGGC; mimic duplex, passenger strand not given here; listed as Homo sapiens) | – | restoration of luciferase activity | considerably reduced
